Data: PMC3433414, “Oral Administration of the Pimelic Diphenylamide HDAC Inhibitor HDACi 4b Is Unsuitable for Chronic Inhibition of HDAC Activity in the CNS In Vivo” (PLoS ONE, 2012)
Read-outs that look alike come from different tables or passages of the source.

Experiment: Pharmacokinetics after a single SC or PO dose
Assay type: in vivo, mouse
Details: for Tmax: read-out: Observed Tmax
Procedure: The pharmacokinetic parameters of 4b following dosing with either 5 mg/kg subcutaneous (sc) injection using the soluble formulation, or 4b per oral (po) by gavage (50 mg/kg in suspension) in mice plasma and whole brain homogenate are shown in Fig. 4 and Table 1. Triplicate dose formulation samples were retained and analyzed to ensure an accurate concentration of 4b was injected. The sc dose was calculated to be on average 84.3% of the 5 mg/kg target dose. Therefore, for PK analysis purposes, the dose level for this group was adjusted to 4.22 mg eq./kg based on the reported average dose formulation concentration and calculation parameters were adjusted accordingly. The po gavage dose was accurate at 50 mg/kg (within 104% of the nominal concentration of 10.0 mg/mL), and triplicate sampling from the vial (1 per strata; top, middle, and bottom) confirmed that the suspension dosed was homogeneous.
All dose formulation procedures were conducted under yellow lighting conditions to protect 4b from light. For the subcutaneous dose group, 2.504 mg 4b was weighed, and transferred into a formulation container. NMP (0.05 mL) was added and the contents were vortexed until 4b was completely dissolved. With continuous vortexing after each addition, PEG400 (0.45 mL), Solutol HS-15 (0.25 mL) and finally 1% Lutrol F68 in RODI water (1.75 mL) followed by sonication for 6 min. The formulation was filtered into a sterile serum vial using a 0.22 µm Millex GV PVDF filter. The resultant formulation was a clear colorless solution.
For the oral dose group, 4b was weighed (21.138 mg) and transferred to a formulation container. The prepared vehicle (0.5% CMC, 2.11 mL) was transferred into the formulation container, and the contents were stirred and sonicated for a total of 20 min. The resultant formulation was a white homogenous suspension.
Whole blood samples (225 µL each ∼90 µL plasma) were collected at each time point per animal into tubes containing K2EDTA. Samples were held on wet ice prior to centrifugation. Mice were bled twice; the first bleed was made via the submandibular facial vein, the second bleed was a terminal collection via cardiac puncture. […] The entire volume of the plasma sample was then transferred to individual tubes contained in a 96-well Matrix plate kept chilled in icy water through the entire process until storage at −70°C ±10°C. Collected plasma samples were stored at −70°C ±10°C until transferred to the analytical laboratory frozen on dry ice for bioanalysis.
The brain of each animal was collected following CO2 euthanasia and terminal bleeding. Each brain was rinsed with saline once removed from the body (to flush away any blood that may have been present), snap frozen in liquid nitrogen, and stored individually in 15 mL conical tubes at −70°C ±10°C.
Prior to extraction, acetonitrile: water (3∶1, v/v) was added to each tissue sample at a tissue: solvent ratio of 1∶3 (w/v) or 1∶2.536 (w/w), and homogenized using an OMNI tissue homogenizer. The actual volume of extraction buffer or organic solvent added to each tissue was recorded. Samples were kept chilled in icy water through the entire process until processed for 4b extraction. Immediately prior to extraction, tissue homogenates were thoroughly vortexed and aliquoted into 96-well plate(s). The entire process, from tissue homogenization to placing the samples in the tubes for 4b extraction, was conducted within 8 h.
primary stock solution was prepared at 1 mg eq./mL in DMSO. The matrix calibration standards were prepared at 1, 2, 5, 10, 50, 250, 1000, 2500, 5000 and 10000 ng eq./mL in mouse plasma for plasma, and 0.25, 0.5, 1.25, 2.5, 12.5, 62.5, 250, 625, 1250, 2500 ng eq./mL in tissue homogenate for tissue analysis. Plasma samples were quantified against an external calibration curve generated in control plasma from male C57BL/6NCRL mice. Tissue samples were quantified against an external calibration standard curve generated in control brain tissue from male C57BL/6NCRL mice. […]

[1] = C57BL/6NCRL, mouse, brain/plasma, po 50 mg eq./kg, mean (standard deviation), N = 3, read-out: B:P
[2] = C57BL/6NCRL, mouse, brain/plasma, sc 4.22 mg eq./kg, mean (standard deviation), N = 3, read-out: B:P

With `Nc1ccccc1NC(=O)CCCCCC(=O)Nc1ccccc1` [Compound 4b] the “brain concentration in the acute sc pharmacodynamic trial, fold higher than by oral dosing” value (150 mg/kg) was about 65 fold, the AUC(0-inf) (C57BL/6NCRL, mouse, 4.22 mg/kg, mice, SC 4.22 mg eq./kg, plasma) was 1.63 µM·h and the half-life (C57BL/6NCRL, mouse, 4.22 mg/kg, mice, SC 4.22 mg eq./kg, plasma, read-out: T1/2 (converted)) was 39.6 min. For the same compound, the AUC(0-inf) (C57BL/6NCRL, mouse, 50 mg/kg, mice, PO 50 mg eq./kg, brain) was 0.129 µM·h, the half-life (C57BL/6NCRL, mouse, 50 mg/kg, mice, PO 50 mg eq./kg, brain, read-out: T1/2 (converted)) was 182 min and the AUC(0-inf) (C57BL/6NCRL, mouse, 50 mg/kg, mice, PO 50 mg eq./kg, plasma) was 1.08 µM·h. The half-life (C57BL/6NCRL, mouse, 50 mg/kg, mice, PO 50 mg eq./kg, plasma, read-out: T1/2 (converted)) was 166 min, the Cmax (C57BL/6NCRL, mouse, brain, po, 50 mg/kg, mice, PO 50 mg eq./kg, brain, read-out: Observed Cmax) was 24 nM and the Tmax (C57BL/6NCRL, mouse, brain, po, 50 mg/kg, mice, PO 50 mg eq./kg, brain) was 60 min. For the same compound, the Cmax (C57BL/6NCRL, mouse, brain, sc, 4.22 mg/kg, mice, SC 4.22 mg eq./kg, brain, read-out: Observed Cmax) was 134 nM, the Tmax (C57BL/6NCRL, mouse, brain, sc, 4.22 mg/kg, mice, SC 4.22 mg eq./kg, brain) was 30 min and the Kp at 0.5 hr [1] was 0.05. It also gave a Kp at 1 hr [1] of 0.08, a Kp at 8 hr (C57BL/6NCRL, mouse, brain/plasma, po 50 mg eq./kg, 8 hr, mean (standard deviation), N = 3, read-out: B:P) of 0.2 and a Kp at 0.5 hr [2] of 0.09. The Kp at 1 hr [2] was 0.06, the AUC (C57BL/6NCRL, mouse, plasma, 50 mg/kg, mice, po 50 mg eq/kg) was 1.08 µM·h and the Cmax (C57BL/6NCRL, mouse, plasma, po, 50 mg/kg, mice, PO 50 mg eq./kg, plasma, read-out: Observed Cmax) was 1130 nM. It also gave a Tmax (C57BL/6NCRL, mouse, plasma, po, 50 mg/kg, mice, PO 50 mg eq./kg, plasma) of at most 30 min, a Cmax (C57BL/6NCRL, mouse, plasma, po, 50 mg/kg, mice, po 50 mg eq/kg, read-out: plasma Cmax) of 1300 nM and a half-life (C57BL/6NCRL, mouse, plasma, sc, 4.22 mg eq./kg, after subcutaneous dosing, read-out: plasma half-life) of about 40 min. It also gave a Cmax (C57BL/6NCRL, mouse, plasma, sc, 4.22 mg/kg, mice, SC 4.22 mg eq./kg, plasma, read-out: Observed Cmax) of 1340 nM, a Tmax (C57BL/6NCRL, mouse, plasma, sc, 4.22 mg/kg, mice, SC 4.22 mg eq./kg, plasma) of at most 30 min and a Cmax (C57BL/6NCRL, mouse, plasma, sc, 4.22 mg/kg, mice, sc 4.22 mg/kg, read-out: plasma Cmax) of 1340 nM. The AUC (C57BL/6NCRL, mouse, plasma, mice, sc 4.22 mg/kg) was 1.63 µM·h, the “estimated brain Cmax” value (extrapolated to 150 mg/kg s.c., assuming linear kinetics) was 4000 to 5000 nM and the “estimated brain Cmax” value (extrapolated to oral bolus of 150 mg/kg) was about 72 nM. The Cmax (mice, PO 50 mg eq./kg, brain, read-out: Observed Cmax) was 24.3 nM, the “brain concentration (below LLQ)” value (po 50 mg/kg, after 8 h) was under 2.3 nM eq and the “plasma concentration (below LLQ)” value (po 50 mg/kg, after 8 h) was under 3.07 nM eq. For the same compound, the “plasma concentration (below LLQ)” value (sc 4.22 mg/kg eq, after 4 h) was under 3.07 nM eq and the “brain concentration (below LLQ)” value (sc 4.22 mg/kg eq, after 8 h) was under 2.3 nM eq.
